# Patent publication US20260070887A1 (Shenzhen Zhongge Biological Technology Co., Ltd., priority 2022, published 2026)
# pIC50: −log10 of the molar value. Read-outs that look alike come from different tables or passages of the source.
# What was measured:
# [1] = tested on: HT-29 cells; experiment: HT-29 cell proliferation (Cell Titer-Glo, 6 days); type: cell-based
# How it was run: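 Cells seeded at 4,170 cells/mL in McCoy's 5a with 10% FBS, compound added from DMSO stock, grown 6 days at 37 °C, 5% CO2. Cell Titer-Glo luminescence; inhibition vs 0.3% DMSO control, IC50 by nonlinear regression.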
# [2] = tested on: HCT116 cells; experiment: HCT116 cell anti-proliferation assay; type: cell-based; settings: 6 days, Cell Titer-Glo
# Experimental: HCT116 (ATCC, CCL-247) cells were cultured in McCoy's 5a complete medium (Gibco, 12330-031) containing 10% fetal bovine serum (Gibco, 10099-141C), 100 U penicillin and 100 μg/mL streptomycin (Gibco, 15140-122). The Promega kit Cell Titer-Glo (Promega: G7572) was used in this method for test.
# HCT116 cells were cultured in T75 cell flasks (Corning, 430641) and the cells were placed in a 37° C., 5% CO2 incubator. Cells were passaged when reaching a cell density of 70%-80%, approximately twice per week. To perform the experiment, the test compounds were dissolved in DMSO to prepare a 10 mM stock solution, and the test compounds were added to the 384-well cell test plate (Corning, 3765) at the predetermined concentration (19.5 nM-[…]) using ECHO. […] cells were digested and 150 cells (60 μL medium) were seeded per well in the test plate. The 384-well plate was then centrifuged at 500 rpm for 1 minute, and then placed in a 37° C., 5% CO2 incubator for 6 days of cultivation. Six days later, the cell culture plate was equilibrated for 10 minutes at room temperature, 25 μL of Cell Titer-Glo was added to each well, and the mixture was shaken and mixed well and let stand for 5 minutes. The luminescence values for samples in various wells were read using a microplate reader in Luminescence mode.
# The percentage of inhibition of cell proliferation by the test compound at each concentration was calculated by comparing with the values of the control group (0.2% DMSO). The IC50 values of the compounds were obtained by concentration-inhibition rate nonlinear regression analysis of the test compounds using GraphPad Prism 9.
# [3] = PK study in ICR mice; type: in vivo, mouse; settings: plasma, route and dose not given
# How it was run: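 Fasted ICR mice (3/group) dosed intravenously or by oral gavage; plasma sampled up to 24 h. Plasma levels measured by LC-MS/MS after protein precipitation. T½, AUC0-t, CL, Vss and F derived by noncompartmental analysis.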
# [4] = both sexes, mouse, read-out: AUC
# [5] = both sexes, mouse, read-out: Cmax
SMILES,"pIC50 ([1]; Homo sapiens, HT-29, 144 h)","pIC50 ([2]; Homo sapiens, HCT-116, 144 h)","AUC [3, 4]","Cmax [3, 5]",pIC50 [1],pIC50 [2],AUC [3],Cmax [3]
"CC1(C)Cn2c(cc3c(NC(=O)c4ccc(NS(=O)(=O)CCO)cc4N4CCC5(CC4)CC5)cccc32)CO1 [Example 371, N-(3,3-dimethyl-3,4-dihydro-1H-[1,4]oxazino[4,3-a]indol-9-yl)-4-(2-hydroxyethylsulfonamido)-2-(6-azaspiro[2.5]octan-6-yl)benzamide]",≥ 6.70,< 5.00,51200 ng·h/mL,3750 ng/mL,–,–,–,–
"O=C(Nc1cccc2c1cc1n2CCC(F)(F)C1)c1ccc(NS(=O)(=O)CCO)cc1N1CCC(=C(F)F)CC1 [Example 374, N-(8,8-difluoro-6,7,8,9-tetrahydropyridino[1,2-a]indol-1-yl)-2-(4-(difluoromethylene)piperidin-1-yl)-4-((2-hydroxyethyl)sulfonamido)benzamide]",≥ 6.70,5.06,26500 ng·h/mL,3700 ng/mL,–,–,–,–
N#Cc1ccc(NC(=O)c2ccc(NS(=O)(=O)CCO)cc2N2CCC(=C(F)F)CC2)c2cc3n(c12)CCC(F)(F)C3 [Example 378],–,–,–,–,≥ 6.70,< 5.00,48150 ng·h/mL,5253 ng/mL
N#Cc1ccc(NC(=O)c2ccc(NS(=O)(=O)CCO)cc2N2CCC3(CC2)CC3)c2cc3n(c12)CCC(F)(F)C3 [Example 379],–,–,–,–,≥ 6.70,5.01,36456 ng·h/mL,4043 ng/mL
"COc1ccc(NC(=O)c2ccc(NS(=O)(=O)CCO)cc2N2CCC3(CC2)CC3)c2cc3n(c12)CC(C)(C)OC3 [Example 455, 4-((2-hydroxyethyl)sulfonamido)-N-(6-methoxy-3,3-dimethyl-3,4-dihydro-1H-[1,4]oxazinyl[4,3-a]indol-9-yl)-2-(6-azaspiro[2.5]oct-6-yl)benzamide]",≥ 6.70,< 5.00,71000 ng·h/mL,5590 ng/mL,–,–,–,–
"COc1ccc(NC(=O)c2ccc(NS(=O)(=O)CCO)cc2N2CCC(=C(F)F)CC2)c2cc3n(c12)CC(C)(C)OC3 [Example 465, 2-(4-(difluoromethylene)piperidin-1-yl)-4-((2-hydroxyethyl)sulfonamido)-N-(6-methoxy-3,3-dimethyl-3,4-dihydro-1H-[1,4]oxazinyl[4,3-a]indol-9-yl)benzamide]",–,–,–,–,≥ 6.70,< 5.00,72111 ng·h/mL,5780 ng/mL
